From PubChem BioAssay AID1259411 (Chemical Carcinogenesis Research Information System (CCRIS), 2018)
The source made the active and inactive calls. No rule for the calls is given here.

System: rodent carcinogenicity bioassays, tumor incidence
Assay: CCRIS carcinogenicity studies
How it was run: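 Archive of carcinogenicity, mutagenicity, tumor promotion and tumor inhibition results drawn from journals, NCI reports and other sources, expert-reviewed; covers 1985-2011 and is no longer updated.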

In the case of `Cc1c2ccccc2c(C)c2c1ccc1ccccc12`, the carcinogen call (Species: FISH, Strain/Sex: KING COBRA GUPPY/ MALE, FEMALE, Route: IMMERSION, Dose: 0, 0.86, 3.18, 0.90 PPB (LOW DOSE) GIVEN AS SEPARATE DOSES OVER A 4 WK PERIOD, EACH DOSE GIVEN 6 HR/D FOR 1 DAY, 0, 16.3, Dose: 0, 0.86, 3.18, 0.90 PPB (LOW DOSE) GIVEN AS SEPARATE DOSES OVER A 4 WK PERIOD, EACH DOSE GIVEN 6 HR/D FOR 1 DAY, 0, 16.3, Tumor Site: Type of Lesion: LIVER: HEPATOCELLULAR ADENOMA, HEPATOCELLULAR CARCINOMA) is reported as “active; positive”, the carcinogen call (Species: FISH, Strain/Sex: SHEEPSHEAD MINNOW/MALE, FEMALE, Route: IMMERSION, Dose: 0, 1, 30, 1200 PPB APPROXIMATE CONCENTRATIONS ADMINISTERED 1/WK FOR 6 OR 24 HR FOR 1 OR 2 WK (STUDY DURATION: 39 WK), Dose: 0, 1, 30, Tumor Site: Type of Lesion: LIVER: ALTERED FOCI, HEPATOCELLULAR ADENOMA OR HEPATOCELLULAR CARCINOMA) is reported as “active; positive” and the carcinogen call (Species: HAMSTER, Strain/Sex: SYRIAN/FEMALE, Route: TONGUE, Dose: 0, 0.10 ML OF A 0.5% ACETONE SOLUTION TO BORDER OF MIDDLE THIRD PORTION OF TONGUE 3/WK FOR 4 WK (STUDY DURATION: 11 WK)) is reported as “inactive; negative”. The carcinogen call (Species: HAMSTER, Strain/Sex: SYRIAN/FEMALE, Route: TONGUE, Dose: 0, 0.10 ML OF A 0.5% ACETONE SOLUTION TO BORDER OF MIDDLE THIRD PORTION OF TONGUE 3/WK FOR 6 WK (STUDY DURATION: 11 WK), Tumor Site: Type of Lesion: TONGUE: CARCINOMA) was “active; positive”, the carcinogen call (Species: HAMSTER, Strain/Sex: SYRIAN/FEMALE, Route: TONGUE, Dose: 0, 0.10 ML OF A 0.5% ACETONE SOLUTION TO BORDER OF MIDDLE THIRD PORTION OF TONGUE 3/WK FOR 8 WK (STUDY DURATION: 11 WK), Tumor Site: Type of Lesion: TONGUE: CARCINOMA) was “active; positive” and the carcinogen call (Species: HAMSTER, Strain/Sex: SYRIAN/MALE,FEMALE, Route: DERMAL, Dose: 80 µL OF 1% SOLN IN MINERAL OIL ONCE OR 1/WK FOR 3 WK, Tumor Site: Type of Lesion: INTEGUMENTARY SYSTEM (SKIN): PAPILLOMA, SQUAMOUS CELL CARCINOMA, ANGIOMA, MELANOTIC AND ADNEXAL TUMOR) was “active; positive”. For the same compound, the carcinogen call (Species: HAMSTER, Strain/Sex: SYRIAN/MALE,FEMALE, Route: DERMAL, Dose: 80 µL OF 1% SOLN IN MINERAL OIL ONCE, Tumor Site: Type of Lesion: INTEGUMENTARY SYSTEM (SKIN): AMELANOTIC DERMAL MELANOCYTOMA) was “active; positive”, the carcinogen call (Species: HAMSTER, Strain/Sex: SYRIAN/MALE,FEMALE, Route: SUBCUTANEOUS, Dose: 0.005-20 MG IN 1 ML OLIVE OIL ONCE, Tumor Site: Type of Lesion: INJECTION SITE: SARCOMA) was “active; positive” and the carcinogen call (Species: MOUSE, Strain/Sex: ALBINO/MALE, Route: DERMAL, Dose: 0.05% IN OLIVE OIL OR ACETONE, 0.2 ML 2/WK, Tumor Site: Type of Lesion: INTEGUMENTARY SYSTEM (SKIN)) was “active; positive”. For the same compound, the carcinogen call (Species: MOUSE, Strain/Sex: B6C3F1/MALE, Route: INTRAPERITONEAL, Dose: 0, 0.00075, 0.0015, 0.003 UMOL/G IN 10 µL/G TRIOCTANOIN ONCE ON 12 D OF AGE (STUDY DURATION: 10 MO), Dose: 0, 0.00075, 0.0015, 0.003 UMOL/G IN 10 µL/G TRIOCTANOIN ONCE ON 12 D OF AGE (STUDY DURATION: 10 MO), Tumor Site: Type of Lesion: LIVER: HEPATOMA) was “active; positive”, the carcinogen call (Species: MOUSE, Strain/Sex: B6C3F1/MALE, Route: INTRAPERITONEAL, Dose: 0, 0.003, 0.01, 0.03 UMOL/G IN 10 µL/G TRIOCTANOIN ONCE ON 12 D OF AGE (STUDY DURATION: 8.5 MO), Dose: 0, 0.003, 0.01, 0.03 UMOL/G IN 10 µL/G TRIOCTANOIN ONCE ON 12 D OF AGE (STUDY DURATION: 8.5 MO), Tumor Site: Type of Lesion: LIVER: HEPATOMA) was “active; positive” and the carcinogen call (Species: MOUSE, Strain/Sex: B6C3F1/MALE, Route: INTRAPERITONEAL, Dose: 0, 0.01 UMOL/G IN 10 µL/G TRIOCTANOIN ON D 12 OF AGE (STUDY DURATION: 10 MO), Tumor Site: Type of Lesion: LIVER: HEPATOMA) was “active; positive”. The carcinogen call (Species: MOUSE, Strain/Sex: BALB/FEMALE, Route: GAVAGE, Dose: 0.5-2 MG IN ALMOND OIL 1/2 WK OR 2/WK FOR 8-10 WK, Tumor Site: Type of Lesion: OVARIES: GRANULOSA CELL TUMOR) was “active; positive”, the carcinogen call (Species: MOUSE, Strain/Sex: BALB, Route: SUBCUTANEOUS, Dose: 30 UG IN 0.02 ML OF 1% AQ GEL SUSPENDED ONCE, Tumor Site: Type of Lesion: LUNG: ADENOMA, ADENOCARCINOMA) was “active; positive” and the carcinogen call (Species: MOUSE, Strain/Sex: C57BL/FEMALE, Route: DERMAL, Dose: 2.5 MG OF 0.5% SOLN IN 0.5 ML OLIVE OIL 1/2 WK FOR LIFE, Tumor Site: Type of Lesion: INTEGUMENTARY SYSTEM (SKIN)) was “active; positive”. For the same compound, the carcinogen call (Species: MOUSE, Strain/Sex: C57BL, Route: DERMAL, Dose: 0.5 ML OF 0.5% SOLN IN OLIVE OIL 1/2 WK FOR 6 WK, Tumor Site: Type of Lesion: OVARIES) was “active; positive”, the carcinogen call (Species: MOUSE, Strain/Sex: C57BL, Route: DERMAL, Dose: 0.5 ML OF 0.5% SOLN IN OLIVE OIL 1/2 WK FOR 6 WK, Tumor Site: Type of Lesion: OVARIES, MAMMARY GLAND) was “active; positive” and the carcinogen call (Species: MOUSE, Strain/Sex: CBA, Route: SUBCUTANEOUS, Dose: 30 UG IN 15 µL OF 1% AQ GEL ONCE, Tumor Site: Type of Lesion: LUNG) was “active; positive”. The carcinogen call (Species: MOUSE, Strain/Sex: CD-1/FEMALE, Route: SUBCUTANEOUS, Dose: 20 MG/KG IN 1% GEL SOLN WITHIN 24 HR OF BIRTH, Tumor Site: Type of Lesion: LUNG: ADENOMA, ADENOCARCINOMA) was “active; positive”, the carcinogen call (Species: MOUSE, Strain/Sex: CD-1/MALE, Route: SUBCUTANEOUS, Dose: 20 MG/KG IN 1% GEL SOLN WITHIN 24 HR OF BIRTH, Tumor Site: Type of Lesion: LUNG: ADENOMA, ADENOCARCINOMA, LIVER: ADENOMA) was “active; positive” and the carcinogen call (Species: MOUSE, Strain/Sex: ICR, Route: SUBCUTANEOUS, Dose: 0.001, 0.01, 0.1 MG IN 0.05 ML TRICAPRYLIN, Dose: 0.001, 0.01, 0.1 MG IN 0.05 ML TRICAPRYLIN, Tumor Site: Type of Lesion: INJECTION SITE: FIBROSARCOMA, SQUAMOUS CELL CARCINOMA, SARCOMA) was “active; positive”. The carcinogen call (Species: MOUSE, Strain/Sex: MALE,FEMALE, Route: DERMAL, Dose: 0.1 ML OF 0.1% SOLN IN ACETONE 1/WK FOR 9 WK, Tumor Site: Type of Lesion: INTEGUMENTARY SYSTEM (SKIN): PAPILLOMA, MALIGNANT PAPILLOMA) was “active; positive”, the carcinogen call (Species: MOUSE, Strain/Sex: SENCAR/FEMALE, Route: GAVAGE, Dose: 0, 20, 60, 200 UG IN 0.1 ML CORN OIL 1/D 5 D/WK FOR 6 WK (STUDY DURATION: 53 WK), Dose: 0, 20, 60, 200 UG IN 0.1 ML CORN OIL 1/D 5 D/WK FOR 6 WK (STUDY DURATION: 53 WK), Tumor Site: Type of Lesion: LYMPHATIC SYSTEM: LYMPHOMA, MAMMARY GLAND: CARCINOMA) was “active; positive” and the carcinogen call (Species: MOUSE, Strain/Sex: SWISS/FEMALE, Route: DERMAL, Dose: 0, 1, 4, 8 NMOL IN 100 µL ACETONE 2/WK FOR 40 WK (STUDY DURATION: 48 WK), Dose: 0, 1, 4, 8 NMOL IN 100 µL ACETONE 2/WK FOR 40 WK (STUDY DURATION: 48 WK), Tumor Site: Type of Lesion: SKIN: TUMORS) was “active; positive”. The carcinogen call (Species: MOUSE, Strain/Sex: SWISS/FEMALE, Route: DERMAL, Dose: 20-500 UG IN ACETONE ONCE, Tumor Site: Type of Lesion: INTEGUMENTARY SYSTEM (SKIN): SQUAMOUS CELL CARCINOMA, SARCOMA, EPITHELIOMA) was “active; positive”, the carcinogen call (Species: MOUSE, Strain/Sex: SWISS/FEMALE, Route: DERMAL, Dose: 100, 200 UG IN 50 µL ACETONE ONCE, Tumor Site: Type of Lesion: INTEGUMENTARY SYSTEM (SKIN): PAPILLOMA, CARCINOMA, SARCOMA) was “active; positive” and the carcinogen call (Species: MOUSE, Strain/Sex: SWISS/MALE,FEMALE, Route: SUBCUTANEOUS, Dose: 0.9 MG SUSPENDED IN 0.45 ML 1% AQ GEL ONCE, Tumor Site: Type of Lesion: INJECTION SITE: FIBROSARCOMA, SQUAMOUS CELL CARCINOMA) was “active; positive”.
